Experimental data from patent publication US11471459B2, “Compounds with enhanced anti-tumor effects” (FONDAZIONE PER L'ISTITUTO ONCOLOGICO DI RICERCA (IOR), priority 2018, dated 2022).

What was measured:
OCI-LY-8 = assay: Proliferation MTT assay, 72 h; format: cell-based; details: OCI-Ly8, OCI-LY-8 (GCB-DLBCL), 72 h exposure
Experimental: (§1) Thirty-nine cell lines derived from activated B cell-like (ABC) (n=3) and germinal center B Cell (GCB) (n=12) diffuse large B cell lymphoma (DLBCL), mantle cell lymphoma (MCL) (n=9), chronic lymphocytic leukemia (CLL) (n=2), Hodgkin lymphoma (HL) (n=4), cutaneous T cell lymphoma (CTCL) (n=3), peripheral T cell lymphoma (PTCL) (n=1), anaplastic large T cell lymphoma (ALCL) (n=4), acute T cell leukemia (ATCL) (n=1) were cultured according to the recommended conditions. All media were supplemented with fetal bovine serum (10%), Penicillin-Streptomycin-Neomycin (˜5,000 units penicillin, 5 mg streptomycin and 10 mg neomycin/mL, Sigma) and L-glutamine (1%).
(§2) EG-011 was dissolved in dimethyl sulphoxide (DMSO) to obtain a stock concentration of 10 mM for in vitro experiments. EG-011 was dissolved in 25% hydroxypropyl beta cyclodextrin (HP-β-CD) in water and adjusted at pH 6.0 using NaOH (0.1 N) and HCl (0.1 N) for in vivo experiments. Application volume was 4.5 mL/kg (100 mg in 4.5 mL), and mice received 200 microliters (corresponding to 200 mg/kg) though intra peritoneal i.p. injection, once per day and five days per week.
(§3) Cells were seeded in 96-well plates (non-tissue culture treated) at a density of 10,000 cells for all cell lines. Each compound was dissolved in dimethyl sulphoxide (DMSO). For treatment of cells, compounds were serially diluted in the appropriate tissue culture medium, at a range of 20 mcM-78 nM following a 1:2 dilution factor and added to cells (in three replicates). Cells were incubated for 72 hours at 37° C., 5% CO2. DMSO alone was added to negative control (untreated) cells. Wells containing medium only were included on each plate and served as blanks for absorbance readings. MTT (Sigma-Aldrich Chemie GmbH, Buchs, Switzerland) was prepared as a 5 mg/ml stock in PBS and filter-sterilized. MTT solution (22 μL) was added to each well and tissue culture plates were incubated at 37° C. for 4 hours. Cells were then lysed with 25% SDS lysis buffer and absorbance was read at 570 nm using an AD340 plate reader (Beckman Coulter International SA, Switzerland). Absorbance values were expressed in percentage of proliferating cells in comparison with control cells (control corresponds to 100%).

PCL-12 = assay: Proliferation MTT assay, 72 h; format: cell-based; details: PCL-12 (CLL), 72 h exposure
Experimental: as §1, §2, §3

RCK8 = assay: Proliferation MTT assay, 72 h; format: cell-based; details: Homo sapiens, RCK8 (GCB-DLBCL), 72 h exposure
Experimental: as §1, §2, §3

REC1 [1] = assay: Proliferation MTT assay, 72 h; format: cell-based; details: Homo sapiens, REC1 (MCL), 72 h exposure
Experimental: as §1, §2, §3

SP49 = assay: Proliferation MTT assay, 72 h; format: cell-based; details: SP49 (MCL), 72 h exposure
Experimental: as §1, §2, §3

SP53 = assay: Proliferation MTT assay, 72 h; format: cell-based; details: SP53 (MCL), 72 h exposure
Experimental: as §1, §2, §3

SU-DHL-10 = assay: Proliferation MTT assay, 72 h; format: cell-based; details: Homo sapiens, SU-DHL10, SU-DHL-10 (GCB-DLBCL), 72 h exposure
Experimental: as §1, §2, §3

SU-DHL-16 = assay: Proliferation MTT assay, 72 h; format: cell-based; details: Homo sapiens, SU-DHL-16 (GCB-DLBCL), 72 h exposure
Experimental: as §1, §2, §3

SU-DHL-2 = assay: Proliferation MTT assay, 72 h; format: cell-based; details: Homo sapiens, SU-DHL-2 (ABC-DLBCL), 72 h exposure
Experimental: as §1, §2, §3

SU-DHL-6 = assay: Proliferation MTT assay, 72 h; format: cell-based; details: Homo sapiens, SU-DHL-6 (GCB-DLBCL), 72 h exposure
Experimental: as §1, §2, §3

SU-DHL-8 = assay: Proliferation MTT assay, 72 h; format: cell-based; details: Homo sapiens, SU-DHL-8 (GCB-DLBCL), 72 h exposure
Experimental: as §1, §2, §3

TOLEDO = assay: Proliferation MTT assay, 72 h; format: cell-based; details: Homo sapiens, TOLEDO (GCB-DLBCL), 72 h exposure
Experimental: as §1, §2, §3

UPN1 = assay: Proliferation MTT assay, 72 h; format: cell-based; details: UPN1 (MCL), 72 h exposure
Experimental: as §1, §2, §3

Z138 = assay: Proliferation MTT assay, 72 h; format: cell-based; details: Homo sapiens, Z-138, Z138 (MCL), 72 h exposure
Experimental: as §1, §2, §3

39 lymphoma cell lines = assay: Proliferation MTT assay, median across the 39 cell lines; format: cell-based; details: 95% C.I. 100-20000 nM, 72 h
Experimental: as §1, with “(1%). […]” for “(1%).”
Cells were seeded in 96-well plates (non-tissue culture treated) at a density of 10,000 cells for all cell lines. […] Wells containing medium only were included on each plate and served as blanks for absorbance readings. […] Cells were then lysed with 25% SDS lysis buffer and absorbance was read at 570 nm using an AD340 plate reader (Beckman Coulter International SA, Switzerland). Absorbance values were expressed in percentage of proliferating cells in comparison with control cells (control corresponds to 100%).
Binomial exact 95% confidence intervals (95% C.I.s) were calculated for median percentages. Differences in IC50 values among lymphoma subtypes were calculated using the t-Student test. […]

ABC-DLBCL cell lines = assay: Proliferation MTT assay, median per subtype; format: cell-based; details: ABC-DLBCL cell lines (n=3), 72 h
Experimental: as §1, §2, §3
(§4) Binomial exact 95% confidence intervals (95% C.I.s) were calculated for median percentages. Differences in IC50 values among lymphoma subtypes were calculated using the t-Student test. Statistical significance was defined by P values of 0.05 or less.

GCB-DLBCL cell lines = assay: Proliferation MTT assay, median per subtype; format: cell-based; details: GCB-DLBCL cell lines (n=12), 72 h
Experimental: as §1, §2, §3, §4

HL cell lines = assay: Proliferation MTT assay, median per subtype; format: cell-based; details: HL cell lines (n=4), 72 h
Experimental: as §1, §2, §3, §4

MCL cell lines = assay: Proliferation MTT assay, median per subtype; format: cell-based; details: MCL cell lines (n=9), 72 h
Experimental: as §1, §2, §3, §4

[2] = test system: T cell lymphomas (CTCL, PTCL, ALCL) cell lines; assay: Proliferation MTT assay, median per subtype; format: cell-based; details: 72 h
Experimental: as §1, §2, §3, §4

PLL cell lines = assay: Proliferation MTT assay, median per subtype; format: cell-based; details: PLL cell lines (n=2), 72 h
OCI-LY-19 = assay: Propidium iodide cell cycle staining; format: cell-based; details: OCI-LY-19, 500 and 2000 nM, 72 h
Experimental: (§5) Lymphoma cells (10^6 per condition) were fixed in cold 70% ethanol (for at least 30 minutes at 4° C.), added dropwise to the cell pellet while vortexing. Cells were washed ×2 in PBS and Spin at 2000 rpm; supernatant was discarded and cells suspended in PBS (0.5 mL) and treated with Ribonuclease (50 μl of 100 μg/mL RNase). Then 200 μl of propidium iodide (50 μg/ml) were added and data acquisition was performed by using BD FACS-Canto II.

REC1 [3] = assay: Propidium iodide cell cycle staining; format: cell-based, human; details: REC1, 500 and 2000 nM, 72 h
Experimental: as §5

[4] = test system: human Mantle cell lymphoma REC1 cells; assay: Xenograft experiment, REC1 model; format: in vivo; details: 200 mg/Kg i.p. once per day, 5 days per week
Experimental: as §2
NOD-Scid (NOD.CB17-Prkdcscid/NCrHsd) mice were purchased from Harlan Laboratory (five-six weeks of age, approximately 20 g body weight). Mice maintenance and animal experiments were performed under institutional guidelines established for the Animal Facility and with study protocols approved by the local Cantonal Veterinary Authority. Mice were subcutaneously engrafted with 15×10^6 of human Mantle cell lymphoma REC1 cells and divided into two experimental groups. Starting with tumors of 180 mm^3 volume, mice underwent treatment with single agent while controls received vehicle only. EG-011 was administered 5 days per week at the dose of 200 mg/kg (200 microliters) though i.p. injection.

Work on `C=CC(=O)N1CCCC(n2c(=O)c3ncccc3n(Cc3ccc(Oc4ccccc4)cc3)c2=O)C1` (centres unmarked) [EG-011, 1-[(4-phenoxyphenyl)methyl]-3-(1-prop-2-enoyl-3-piperidyl)pyrido[3,2-d]pyrimidine-2,4-dione] yielded an IC50 (OCI-LY-8) of 0.3 µM, an IC50 (PCL-12) of 7 µM and an IC50 (RCK8) of 10 µM. For the same compound, the IC50 (REC1 [1]) was 0.1 µM, the IC50 (SP49) was 8 µM and the IC50 (SP53) was 1 µM. It also gave an IC50 (SU-DHL-10) of 0.3 µM, an IC50 (SU-DHL-16) of 1.5 µM and an IC50 (SU-DHL-2) of 20 µM. The IC50 (SU-DHL-6) was 0.5 µM, the IC50 (SU-DHL-8) was 0.3 µM and the IC50 (TOLEDO) was 0.6 µM. The IC50 (UPN1) was 0.12 µM, the IC50 (Z138) was 20 µM and the IC50 (39 lymphoma cell lines) was 2.5 µM. It also gave an IC50 (ABC-DLBCL cell lines) of 10 µM, an IC50 (GCB-DLBCL cell lines) of 0.55 µM and an IC50 (HL cell lines) of 13.5 µM. For the same compound, the IC50 (MCL cell lines) was 1 µM, the IC50 [2] was 2.5 µM and the IC50 (PLL cell lines) was 7.5 µM. The “cells in the sub-GO phase (dead cells)” value (OCI-LY-19) was “dose dependent increase of the cells in the sub-GO phase”, the “cells in the sub-GO phase (dead cells)” value (REC1 [3]) was “dose dependent increase of the cells in the sub-GO phase” and the “body weight of treated animals (in vivo toxicity)” value [4] was “no reduction in the body weight”. For the same compound, the “tumor growth (volume) versus control” value ([4]; Day 6, Day 7, Day 9, P<0.05) was “delayed tumor growth” and the “tumor weight versus control” value ([4]; P<0.001 (FIG. 8)) was “delayed”.
